Results on 31 compounds are retold here after US12612412B2, “Antiviral heterocyclic compounds” (Enanta Pharmaceuticals, Inc., priority 2021, dated 2026).

Experiment [1] relates to HMPV clinical isolate TN/1501/A1. The experiment is described as follows: HMPV antiviral assay Method-B (clinical isolate TN/1501/A1 in LLC-MK2 cells, ATP-Lite readout). The format is cell-based, Human metapneumovirus (HMPV). To be noted: human metapneumovirus, LLC-MK2, 144 h, hMPV WT1501 (clinical isolate TN/1501/A1), 6 days. In outline: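 EC50 derived by four-parameter logistic fit of percent cell health, measured by ATP-Lite luminescence and normalised to virus-only and uninfected-cell controls. Compounds run in duplicate from 10 μM top, 3-fold, 10 points. Infection: LLC-MK2 cells, MOI 0.014, 2 μg/mL final TPCK-trypsin, serum-free, 6 days at 37° C.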

Experiment [2] concerns genotype A, "Long" strain RSV. Kind of experiment: RSV-A assay (CPE protection in Hep-2 cells, ATPlite readout). The format is cell-based, Human respiratory syncytial virus (HRSV). To be noted: human respiratory syncytial virus, RSV-A Long strain, MOI 0.1, CPE protection, read-out: Human RSV-A (“Long”) EC50. In outline: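 ATPlite luminescence (cellular ATP) served as the measure of cell health after 5 days of infection. Hep-2 cells at 8,000 per well received duplicate 2-fold compound dilutions plus virus at MOI 0.1, and EC50 was calculated from CPE protection.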
In general terms: ATP-based viability assays read luminescence as a measure of living cells.

For orientation: EC50 means the midpoint of the concentration-response curve. On to `COc1cc(C(=O)NC[C@@](O)(c2cc3c(c(-c4ccc5c(c4)OC(F)(F)C(F)(F)O5)n2)OC[C@]3(C)C(N)=O)C(F)(F)F)cc2cn(C3CC3)nc12` [Example 954], for which the EC50 is > 500 nM in experiment [1] and < 200 nM in experiment [2].
For the compound `COc1cc(C(=O)NC[C@@](O)(c2cc3c(c(-c4ccc(F)c(Br)c4F)n2)OC[C@]3(C)C(N)=O)C(F)(F)F)cc2cn(C3CC3)nc12` [Example 955], the EC50 was > 500 nM in experiment [1] and < 200 nM in experiment [2].
The like results for `COc1cc(C(=O)NC[C@](O)(c2cc3c(c(-c4ccc(F)c(Br)c4F)n2)OC[C@]3(C)C(N)=O)C(F)(F)F)cc2cn(C3CC3)nc12` [Example 956] were, in that order, < 500 nM and < 200 nM.
The matching figures for `COc1cc(C(=O)NC[C@](O)(c2cc3c(c(-c4c(F)cc(Cl)cc4F)n2)OC[C@]3(C)C(N)=O)C(F)(F)F)cc2cn(C3CC3)nc12` [Example 961]: < 500 nM and < 200 nM.
The like results for `COc1cc(C(=O)NC[C@](O)(c2cc3c(c(-c4ccc5ccccc5c4)n2)OC[C@]3(C)C(N)=O)C(F)(F)F)cc2cn(C3CC3)nc12` [Example 965] were, in that order, > 500 nM and > 200 nM.
Turning to `COc1cc(C(=O)NC[C@](O)(c2cc3c(c(-c4ccc5ncccc5c4)n2)OC[C@]3(C)C(N)=O)C(F)(F)F)cc2cn(C3CC3)nc12` [Example 966], the figures for the EC50 in experiment [1] and in experiment [2] were > 500 nM and > 200 nM, respectively.
As for `COc1cc(C(=O)NC[C@](O)(c2cc3c(c(-c4ccc5nc(C)ccc5c4)n2)OC[C@]3(C)C(N)=O)C(F)(F)F)cc2cn(C3CC3)nc12` [Example 967], the half-maximal effective concentration (EC50) is > 500 nM in experiment [1] and > 200 nM in experiment [2].
The like results for `COc1cc(C(=O)NC[C@](O)(c2cc3c(c(-c4cccs4)n2)OC[C@]3(C)C(N)=O)C(F)(F)F)cc2cn(C3CC3)nc12` [Example 968] were, in that order, > 500 nM and > 200 nM.
The matching figures for `COc1cc(C(=O)NC[C@](O)(c2cc3c(c(-c4ccc5[nH]ccc5c4)n2)OC[C@]3(C)C(N)=O)C(F)(F)F)cc2cn(C3CC3)nc12` [Example 969]: > 500 nM and > 200 nM.
The matching figures for `COc1cc(C(=O)NC[C@](O)(c2cc3c(c(-c4ccc5cc[nH]c5c4)n2)OC[C@]3(C)C(N)=O)C(F)(F)F)cc2cn(C3CC3)nc12` [Example 970]: > 500 nM and > 200 nM.
As to `COc1cc(C(=O)NC[C@](O)(c2cc3c(c(-c4ccc5c(c4)CC(=O)N5)n2)OC[C@]3(C)C(N)=O)C(F)(F)F)cc2cn(C3CC3)nc12` [Example 971], the EC50 in experiment [1] was > 500 nM; in experiment [2], > 200 nM.
The matching figures for `COc1cc(C(=O)NC[C@](O)(c2cc3c(c(-c4ccc(Cl)c(C(F)(F)F)c4)n2)OC[C@]3(C)C(N)=O)C(F)(F)F)cc2cn(C3CC3)nc12` [Example 972]: < 500 nM and < 200 nM.
`COc1cc(C(=O)NC[C@](O)(c2cc3c(c(-c4ccc5c(c4)OCCO5)n2)OC[C@]3(C)C(N)=O)C(F)(F)F)cc2cn(C3CC3)nc12` [Example 973]: the EC50 was > 500 nM in experiment [1] and > 200 nM in experiment [2].
The matching figures for `COc1cc(C(=O)NC[C@](O)(c2cc3c(c(-c4ccc(F)c(C(F)(F)F)c4)n2)OC[C@]3(C)C(N)=O)C(F)(F)F)cc2cn(C3CC3)nc12` [Example 974]: < 500 nM and < 200 nM.
The like results for `COc1cc(C(=O)NC[C@](O)(c2cc3c(c(-c4cccc(Cl)c4)n2)OC[C@]3(C)C(N)=O)C(F)(F)F)cc2cn(C3CC3)nc12` [Example 975] were, in that order, < 500 nM and < 200 nM.
The like results for `COc1cc(C(=O)NC[C@](O)(c2cc3c(c(-c4ccc(OC5CC5)cc4)n2)OC[C@]3(C)C(N)=O)C(F)(F)F)cc2cn(C3CC3)nc12` [Example 976] were, in that order, > 500 nM and < 200 nM.
For the compound `COc1cc(C(=O)NC[C@](O)(c2cc3c(c(-c4cccc(C5CC5)c4)n2)OC[C@]3(C)C(N)=O)C(F)(F)F)cc2cn(C3CC3)nc12` [Example 977], the figures for the EC50 in experiment [1] and in experiment [2] were > 500 nM and < 200 nM, respectively.
The matching figures for `COc1cc(C(=O)NC[C@](O)(c2cc3c(c(-c4cccc(OC(F)(F)F)c4)n2)OC[C@]3(C)C(N)=O)C(F)(F)F)cc2cn(C3CC3)nc12` [Example 978]: > 500 nM and < 200 nM.
The like results for `COc1cc(C(=O)NC[C@](O)(c2cc3c(c(-c4ccc(OCC(F)F)cc4)n2)OC[C@]3(C)C(N)=O)C(F)(F)F)cc2cn(C3CC3)nc12` [Example 979] were, in that order, < 500 nM and < 200 nM.
For `COc1cc(C(=O)NC[C@](O)(c2cc3c(c(-c4ccc5c(c4)CC5)n2)OC[C@]3(C)C(N)=O)C(F)(F)F)cc2cn(C3CC3)nc12` [Example 980], the results for the EC50 in experiment [1] and in experiment [2] were < 500 nM and < 200 nM, respectively.
The matching figures for `COc1cc(C(=O)NC[C@](O)(c2cc3c(c(-c4ccc(C5(C#N)CC5)cc4)n2)OC[C@]3(C)C(N)=O)C(F)(F)F)cc2cn(C3CC3)nc12` [Example 981]: > 500 nM and > 200 nM.
The like results for `C#Cc1ccc(-c2nc([C@@](O)(CNC(=O)c3cc(OC)c4nn(C5CC5)cc4c3)C(F)(F)F)cc3c2OC[C@]3(C)C(N)=O)cc1` [Example 982] were, in that order, > 500 nM and < 200 nM.
The matching figures for `COc1cc(C(=O)NC[C@](O)(c2cc3c(c(-c4ccc(OC(F)(F)F)c(Cl)c4)n2)OC[C@]3(C)C(N)=O)C(F)(F)F)cc2cn(C3CC3)nc12` [Example 983]: > 500 nM and < 200 nM.
Turning to `COc1cc(C(=O)NC[C@](O)(c2cc3c(c(-c4ccc5c(c4)CCC5)n2)OC[C@]3(C)C(N)=O)C(F)(F)F)cc2cn(C3CC3)nc12` [Example 984], the EC50 was > 500 nM in experiment [1] and > 200 nM in experiment [2].
The like results for `COc1cc(C(=O)NC[C@](O)(c2cc3c(c(-c4ccc(F)c(F)c4)n2)OC[C@]3(C)C(N)=O)C(F)(F)F)cc2cn(C3CC3)nc12` [Example 985] were, in that order, < 500 nM and < 200 nM.
As for `COc1cc(C(=O)NC[C@](O)(c2cc3c(c(-c4ccc(Cl)c(F)c4)n2)OC[C@]3(C)C(N)=O)C(F)(F)F)cc2cn(C3CC3)nc12` [Example 986], the concentration giving a half-maximal response (EC50) in experiment [1] was < 500 nM; in experiment [2], < 200 nM.
For `COc1cc(C(=O)NC[C@](O)(c2cc3c(c(-c4ccc(Cl)cc4F)n2)OC[C@]3(C)C(N)=O)C(F)(F)F)cc2cn(C3CC3)nc12` [Example 987], the values for the EC50 in experiment [1] and in experiment [2] were < 500 nM and < 200 nM, respectively.
The like results for `COc1cc(C(=O)NC[C@](O)(c2cc3c(c(-c4cccc(F)c4F)n2)OC[C@]3(C)C(N)=O)C(F)(F)F)cc2cn(C3CC3)nc12` [Example 988] were, in that order, < 500 nM and < 200 nM.
The like results for `COc1cc(C(=O)NC[C@](O)(c2cc3c(c(-c4c(F)cccc4Cl)n2)OC[C@]3(C)C(N)=O)C(F)(F)F)cc2cn(C3CC3)nc12` [Example 989] were, in that order, < 500 nM and < 200 nM.
`COc1cc(C(=O)NC[C@](O)(c2cc3c(c(-c4cc(Cl)ccc4F)n2)OC[C@]3(C)C(N)=O)C(F)(F)F)cc2cn(C3CC3)nc12` [Example 990]: the EC50 in experiment [1] was < 500 nM; in experiment [2] it was < 200 nM.
Take `COc1cc(C(=O)NC[C@](O)(c2cc3c(c(-c4cc(F)ccc4Cl)n2)OC[C@]3(C)C(N)=O)C(F)(F)F)cc2cn(C3CC3)nc12` [Example 991]: the EC50 in experiment [1] was < 500 nM; in experiment [2] it was < 200 nM.
